Source: patent publication US20160051579A1, “NITRIC OXIDE TREATMENT OF BOVINE RESPIRATORY DISEASE COMPLEX AND OTHER RESPIRATORY CONDITIONS” (Bovicor Pharmatech, Inc., priority 2014, published 2016)
“Also recorded” adds a separate entry of the source.

Columns and labels:
[1] = in vivo; cited from earlier work
[2] = cited from earlier work
BRDc = assay: Commercial feedlot trial NORS vs Micotil: BRDc incidence, relapse, mortality; format: in vivo, beef calves
From the text: Commingled, multi-sourced, mixed-breed beef calves were purchased from auction markets for these studies. […] Animals identified for the study were to be approximately 6 months old with an estimated initial mean body weight of between 400-600 lbs. All animals were transported via commercial cattle liners to the feedlot. […] After a 24-hour acclimatization period, the calves were screened, enrolled, randomized, processed, weighed, and temperature measured with blood samples taken by a veterinarian.
(§1) NORS was delivered with a spray device specifically designed for the study. […] Animals in the control cohort received an injection of Micotil® of 2 mL/100 lb.
Animals identified by the pen keepers as appearing to be sick were “pulled” and brought into a barn. The animal was then placed in a catch chute and assessed by a veterinarian, who was blinded to the study, and assigned a clinical score to each animal.
BRDc was diagnosed as positive based on temperature greater than 103.5° F. and a clinical pulmonary score of 3 or greater.
At day 150, all animals were assessed for average daily weight gain and recorded.
Animals that died during the first 35 days of the study, for any reason, were sent for pathology testing (done by a board certified, blinded, veterinary pathologist). The following sections were tested: Lungs (left anterior, left middle, left caudal, right anterior, right middle, right caudal), heart, nasal mucosa, pharynx, Retropharyngeal L.N. and trachea. Diagnosis for the cause of death was determined by the pathologist.
Deaths of animals from day 35 to 150 were recorded and the farm's pathologist identified the cause of death.
In order to evaluate the difference in BRDc positive rates between NORS and Micotil® treated animals, a non-inferiority analysis was conducted. Specifically, the null hypothesis that the BRDc positive rate in the Bovinex group (pB) is more than 7.5% higher than the rate in the Micotil® group (pM) was tested using a nonparametric bootstrap: • H0: pB−pM≧7.5% • vs. • H1: pB−pM<7.5%

[3] = Commercial feedlot trial NORS vs Micotil: weight gain; format: in vivo, beef calves
Description: as §1
During the follow-up period (day 35 to day 60), relapses requiring antibiotic intervention were recorded as part of the normal feedlot routine. At day 150, all animals were assessed for average daily weight gain and recorded.
In order to evaluate the effect of treatment on 35-day weight change, a linear mixed effects model was fit to the data. Specifically, the effect of treatment on weight change was evaluated while controlling for baseline weight (fixed effect) and pen (random effect). Confidence intervals are based on the linear mixed effects model and account for the possibility of correlation of animals grouped together within the same pen.

Trichophyton rubrum = assay: Antifungal efficacy of NORS, mycelial viability; format: cell-based; conditions: 0.14% sodium nitrite (pH 6) or citric acid at pH 3.7 alone, 30-minute exposure
[4] = tested on: Trichophyton mentagrophytes; assay: Antifungal efficacy of NORS, mycelial viability; format: cell-based; conditions: 0.14% sodium nitrite (pH 6) or citric acid at pH 3.7 alone, 30-minute exposure

## CCCNC[C@]1(O)[C@H](C)O[C@@H](O[C@H]2[C@H](C)[C@@H](O[C@@H]3O[C@H](C)C[C@H](N(C)C)[C@H]3O)[C@](C)(O)C[C@@H](C)CN[C@H](C)[C@@H](O)[C@](C)(O)[C@@H](CC)OC(=O)[C@@H]2C)C[C@@]1(C)OC [tulathromycin]
[1]
  time remaining in the pulmonary system: ≤ 28 days

## [N]=O [NO, Nitric Oxide]
[2]
  half-life in the body: less than 6 s

## CC[C@H]1OC(=O)C[C@@H](O)[C@H](C)[C@@H](O[C@@H]2O[C@H](C)[C@@H](O)[C@H](N(C)C)[C@H]2O)[C@@H](CCN2C[C@H](C)C[C@H](C)C2)C[C@@H](C)C(=O)/C=C/C(C)=C/[C@@H]1CO[C@@H]1O[C@H](C)[C@@H](O)[C@@H](OC)[C@H]1OC [antibiotic, tilmicosin]
BRDc; Pen B2
  # of BRDc positive animals: 1
  % of BRDc positive animals: 0.7%
BRDc; Pen B6
  # of BRDc positive animals: 5
  % of BRDc positive animals: 3.7%
BRDc; Pen C3
  # of BRDc positive animals: 3
  % of BRDc positive animals: 2.2%
BRDc; Pen C7
  # of BRDc positive animals: 8
  % of BRDc positive animals: 6.2%
BRDc; day 35-150
  BRDc related deaths as diagnosed by the feedlot: 3
  animals that died: 12
BRDc; during the 35 days of the study
  animals that died: 8
BRDc; first 35 days
  animals pulled for suspected illness: Thirty-three
BRDc; followed until day 150
  number of relapses: 10
BRDc; total of cohort, 35 days
  # of BRDc positive animals: 17
  % of BRDc positive animals: 3.2%
[3]; 35 days
  average daily gain: 2.0 lbs/day
[3]; baseline weight of 554 lbs
  average 35-day weight gain: 70 lbs
[3]; day 150
  average daily gain: 2.61 lbs
  average gain: 392 lbs
[3]; over 35 days
  additional weight gain relative to those treated with NORS: 5.5 lbs

## O=NO [sodium nitrite]
Trichophyton rubrum
  effect of single component on mycelial growth: Minimal to no effect
Trichophyton rubrum; listed as nitrites
  effect of single component on mycelial growth: no significant effect
[4]
  effect of single component on mycelial growth: Minimal to no effect
[4]; listed as nitrites
  effect of single component on mycelial growth: no significant effect

## O=C(O)CC(O)(CC(=O)O)C(=O)O [citric acid]
Trichophyton rubrum
  effect of single component on mycelial growth: Minimal to no effect; also recorded: no significant effect
[4]
  effect of single component on mycelial growth: Minimal to no effect; also recorded: no significant effect
